According to PMC3810934 (Emerging Infectious Diseases, 2013):
Where two headings read alike, the source gives them in different places.

Assays:
[1] = target: A/Anhui/1/2013 (E2/S1) virus isolate neuraminidase (Influenza A virus (A/Anhui/1/2013(H7N9)), UniProt A0A024E3Q2); assay type: biochemical; conditions: pH 6.5
[2] = target: T1, Oseltamivir-sensitive A/Washington/01/2007 neuraminidase (Influenza A virus (H3N2), UniProt A7UPN3); assay type: biochemical; conditions: pH 6.5
[3] = target: T2, Oseltamivir-sensitive A/California/12/2012 neuraminidase (Influenza A virus (H1N1pdm09), UniProt R4SI91); assay type: biochemical; conditions: pH 6.5
[4] = target: A/Anhui/1/2013 (E2/S1) virus isolate neuraminidase (Influenza A virus (A/Anhui/1/2013(H7N9)), UniProt A0A024E3Q2); assay type: biochemical; conditions: pH 5.1
[5] = target: T1, Oseltamivir-sensitive A/Washington/01/2007 neuraminidase; test: biochemical
[6] = target: T2, Oseltamivir-sensitive A/California/12/2012 neuraminidase; assay type: biochemical; conditions: pH 5.1
[7] = system: A/Shanghai/1/2013 virus; conditions: cited from earlier work

SMILES | IC50 ([1]; read-out: IC50) | IC50 [2] | IC50 [3] | IC50 ([4]; read-out: IC50) | IC50 ([5]; pH 5.1, read-out: IC50) | IC50 [6] | IC50 [1] | IC50 [4] | IC50 [5] | Susceptibility on the basis of NI assay data [7]
CCC(CC)[C@H](NC(C)=O)[C@@H]1[C@H](O)[C@@H](C(=O)O)C[C@H]1N=C(N)N [Peramivir, peramivir] | 0.06 nM | 0.08 nM | 0.06 nM | 0.12 nM | 0.1 nM | 0.07 nM | – | – | – | –
CO[C@@H]([C@@H]1OC(C(=O)O)=C[C@H](NC(=N)N)[C@H]1NC(C)=O)[C@H](O)CO [Laninamivir, laninamivir] | – | – | – | – | – | – | 0.46 nM | 1.29 nM | – | –
CC(=O)N[C@H]1[C@H]([C@H](O)[C@H](O)CO)OC(C(=O)O)=C[C@@H]1N=C(N)N [Zanamivir, zanamivir] | – | – | – | – | – | – | 0.33 nM | 1 nM | 0.45 nM | susceptible
